Data reported in US8501732B2, “Aminomethyl quinolone compounds” (Hoffmann-La Roche Inc., priority 2011, dated 2013).

What was measured:
JNK1 = JNK1 (Homo sapiens (Human), UniProt P45983); assay: In Vitro JNK1 Assay (TR-FRET, phosphorylation of GST-c-Jun); assay type: biochemical; details: 0.2 nM active JNK1 kinase, 26.7 nM GST-c-Jun, 2 μM ATP, 30 min at room temperature
Method in brief: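 IC50 derived from percent inhibition across 10 serially diluted concentrations, with TR-FRET detection of phospho-c-Jun via an anti-phospho-c-Jun antibody after EDTA stop. Substrate was GST-c-Jun 1-79, reacted 30 min at room temperature in pH 7.0 HEPES buffer with MgCl2, DTT, vanadate and BSA.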

[1] = system: phospho(Ser63)-c-jun in HK-2 cells; assay: Cell-Based Assay for JNK Inhibitors (in-cell ELISA, phospho(Ser63)-c-jun after TNFα); details: HK-2 cells (human proximal tubule cells), 60 minutes compound, then 10 ng/mL TNFα for 30 minutes
Method in brief: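 HK-2 human proximal tubule cells were seeded at 40,000 cells/well, cultured 24 h, then serum-starved 16–24 h before TNFα stimulation with compound. Phospho(Ser63)-c-jun was quantified by in-cell ELISA on fixed, permeabilised cells, using a rabbit phospho-specific primary (overnight, 4 °C) and an HRP-linked anti-rabbit secondary. Absorbance was read at 450 nm.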

Sequence of JNK1 (P45983 whole entry): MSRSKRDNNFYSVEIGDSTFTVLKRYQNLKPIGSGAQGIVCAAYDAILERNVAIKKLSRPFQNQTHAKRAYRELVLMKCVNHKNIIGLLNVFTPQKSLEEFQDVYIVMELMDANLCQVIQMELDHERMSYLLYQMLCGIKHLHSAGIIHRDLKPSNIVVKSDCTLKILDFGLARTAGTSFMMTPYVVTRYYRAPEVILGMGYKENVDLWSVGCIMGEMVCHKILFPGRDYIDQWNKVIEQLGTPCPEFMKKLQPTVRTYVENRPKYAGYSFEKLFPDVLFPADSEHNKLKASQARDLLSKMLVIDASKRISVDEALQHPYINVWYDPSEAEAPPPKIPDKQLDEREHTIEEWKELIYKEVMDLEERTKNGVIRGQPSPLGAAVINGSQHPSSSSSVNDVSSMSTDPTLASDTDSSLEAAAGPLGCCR

IC50 (JNK1)	EC50 [1]	SMILES
21 nM	26000 nM	CS(=O)(=O)C1CCN(c2ncc(C(=O)NCc3cn(-c4ccccc4)c4cc(Cl)ccc4c3=O)s2)CC1 [Example I-92, 2-(4-Methanesulfonyl-piperidin-1-yl)-thiazole-5-carboxylic acid (7-chloro-4-oxo-1-phenyl-1,4-dihydro-quinolin-3-ylmethyl)-amide]
4 nM	2400 nM	COC(=O)c1c(CNC(=O)c2ccc(N3CCOCC3)nc2)c(=O)c2ccc(F)cc2n1-c1ccccc1 [Example I-169, 7-Fluoro-3-{[(6-morpholin-4-yl-pyridine-3-carbonyl)-amino]-methyl}-4-oxo-1-phenyl-1,4-dihydro-quinoline-2-carboxylic acid methyl ester]
32 nM	18000 nM	COC(=O)c1c(CNC(=O)c2cccc(OC)c2)c(=O)c2ccc(OC)cc2n1-c1ccccc1 [Example I-161, 7-Methoxy-3-[(3-methoxy-benzoylamino)-methyl]-4-oxo-1-phenyl-1,4-dihydro-quinoline-2-carboxylic acid methyl ester]
39 nM	38000 nM	COC(=O)c1c(CNC(=O)c2ccc(F)c(F)c2)c(=O)c2ccc(OC)cc2n1-c1ccccc1 [Example I-162, 7-Methoxy-3-[(3,4-difluorobenzoylamino)-methyl]-4-oxo-1-phenyl-1,4-dihydro-quinoline-2-carboxylic acid methyl ester]
31 nM	38000 nM	COC(=O)c1c(CNC(=O)c2ccc(-c3csc(C)n3)cc2)c(=O)c2ccc(Cl)cc2n1-c1ccccc1 [Example I-127, 7-Chloro-3-{[4-(2-methyl-thiazol-4-yl)-benzoylamino]-methyl}-4-oxo-1-phenyl-1,4-dihydro-quinoline-2-carboxylic acid methyl ester]
26 nM	22000 nM	COC(=O)c1c(CNC(=O)c2cccc(Cl)c2)c(=O)c2ccc(OC)cc2n1-c1ccccc1 [Example I-160, 3-[(3-Chloro-benzoylamino)-methyl]-7-methoxy-4-oxo-1-phenyl-1,4-dihydro-quinoline-2-carboxylic acid methyl ester]
15 nM	3300 nM	COC(=O)c1c(CNC(=O)c2ccc(-c3cc[nH]n3)cc2)c(=O)c2ccc(Cl)cc2n1-c1ccccc1 [Example I-122, 7-Chloro-4-oxo-1-phenyl-3-{[4-(1H-pyrazol-3-yl)-benzoylamino]-methyl}-1,4-dihydro-quinoline-2-carboxylic acid methyl ester]
65 nM	100000 nM	CC(C)(C)OC(=O)NC1CCN(c2ccc(C(=O)NCc3cn(-c4ccccc4)c4cc(Cl)ccc4c3=O)cn2)CC1 [Example I-81, {5′-[(7-Chloro-4-oxo-1-phenyl-1,4-dihydro-quinolin-3-ylmethyl)-carbamoyl]-3,4,5,6-tetrahydro-2H-[1,2]bipyridinyl-4-yl}-carbamic acid tert-butyl ester]
79 nM	10000 nM	COC(=O)c1c(CNC(=O)c2ccc3cc[nH]c3c2)c(=O)c2ccc(C(F)(F)F)nc2n1-c1ccccc1 [Example I-158, 3-{[(1H-Indole-6-carbonyl)-amino]-methyl}-4-oxo-1-phenyl-7-trifluoromethyl-1,4-dihydro-[1,8]naphthyridine-2-carboxylic acid methyl ester]
14 nM	4500 nM	O=C(NCc1c(-c2ncco2)n(-c2ccccc2)c2cc(Cl)ccc2c1=O)c1ccc(N2CCCCC2)nc1 [Example I-7, 3,4,5,6-Tetrahydro-2H-[1,2′]bipyridinyl-5′-carboxylic acid (7-chloro-2-oxazol-2-yl-4-oxo-1-phenyl-1,4-dihydro-quinolin-3-ylmethyl)-amide]
54 nM	100000 nM	COc1ccc(C(=O)NCc2cn(-c3ccccc3)c3cc(Cl)ccc3c2=O)cn1 [Example I-35, N-(7-Chloro-4-oxo-1-phenyl-1,4-dihydro-quinolin-3-ylmethyl)-6-methoxy-nicotinamide]
13 nM	5000 nM	O=C(NCc1cn(-c2ccccc2)c2cc(Cl)ccc2c1=O)c1ccn(Cc2ccccc2)c(=O)c1 [Example I-29, 1-Benzyl-2-oxo-1,2-dihydro-pyridine-4-carboxylic acid (7-chloro-4-oxo-1-phenyl-1,4-dihydro-quinolin-3-ylmethyl)-amide]
15 nM	1800 nM	COC(=O)c1c(CNC(=O)c2cnn(C)c2)c(=O)c2ccc(Cl)cc2n1-c1ccccc1 [Example I-121, 7-Chloro-3-{[(1-methyl-1H-pyrazole-4-carbonyl)-amino]-methyl}-4-oxo-1-phenyl-1,4-dihydro-quinoline-2-carboxylic acid methyl ester]
4 nM	1200 nM	O=C(NCc1c(-c2ncco2)n(-c2ccccc2)c2ncccc2c1=O)c1ccn(Cc2ccccc2)c(=O)c1 [Example I-9, 1-Benzyl-2-oxo-1,2-dihydro-pyridine-4-carboxylic acid (2-oxazol-2-yl-4-oxo-1-phenyl-1,4-dihydro-[1,8]naphthyridin-3-ylmethyl)-amide]
29 nM	5200 nM	O=C(NCc1c(-c2ncco2)n(-c2ccccc2)c2ncccc2c1=O)c1ccc(N2CCOCC2)nc1 [Example I-10, 6-Morpholin-4-yl-N-(2-oxazol-2-yl-4-oxo-1-phenyl-1,4-dihydro-[1,8]naphthyridin-3-ylmethyl)-nicotinamide]
60 nM	8400 nM	COC(=O)c1c(CNc2ncnc3ccccc23)c(=O)c2ccc(Cl)cc2n1-c1ccccc1 [Example I-208, 7-Chloro-4-oxo-1-phenyl-3-(quinazolin-4-ylaminomethyl)-1,4-dihydro-quinoline-2-carboxylic acid methyl ester]
10 nM	44000 nM	COC(=O)c1c(CNC(=O)c2ccc(Cl)nc2)c(=O)c2ccc(F)cc2n1-c1ccccc1 [Example I-170, 3-{[(6-Chloro-pyridine-3-carbonyl)-amino]-methyl}-7-fluoro-4-oxo-1-phenyl-1,4-dihydroquinoline-2-carboxylic acid methyl ester]
17 nM	9700 nM	COC(=O)c1c(CNC(=O)c2cccc(Cl)c2)c(=O)c2ccc(Cl)cc2n1-c1ccccc1 [Example I-142, 7-Chloro-3-[(3-chloro-benzoylamino)-methyl]-4-oxo-1-phenyl-1,4-dihydro-quinoline-2-carboxylic acid methyl ester]
11 nM	3700 nM	CNC(=O)c1ccc(C(=O)NCc2c(C(=O)OC)n(-c3ccccc3)c3cc(Cl)ccc3c2=O)cc1 [Example I-118, 7-Chloro-3-[(4-methylcarbamoyl-benzoylamino)-methyl]-4-oxo-1-phenyl-1,4-dihydro-quinoline-2-carboxylic acid methyl ester]
73 nM	100000 nM	COC(=O)c1c(CNC(=O)c2ccc(F)cc2)c(=O)c2ccc(OC)cc2n1-c1ccccc1 [Example I-166, 3-[(4-Fluoro-benzoylamino)-methyl]-7-methoxy-4-oxo-1-phenyl-1,4-dihydro-quinoline-2-carboxylic acid methyl ester]
20 nM	6300 nM	O=C(NCc1cn(-c2ccccc2)c2cc(Cl)ccc2c1=O)c1ccc(N2CCC(CO)CC2)nc1 [Example I-67, 4-Hydroxymethyl-3,4,5,6-tetrahydro-2H-[1,2′]bipyridinyl-5′-carboxylic acid (7-chloro-4-oxo-1-phenyl-1,4-dihydro-quinolin-3-ylmethyl)-amide]
48 nM	8800 nM	COC(=O)c1c(CNC(=O)c2ccc(Cl)c(Cl)c2)c(=O)c2ccc(Cl)cc2n1-c1ccccc1 [Example I-144, 7-Chloro-3-[(3,4-dichloro-benzoylamino)-methyl]-4-oxo-1-phenyl-1,4-dihydro-quinoline-2-carboxylic acid methyl ester]
7 nM	2500 nM	O=C(NCc1c(-c2ncco2)n(-c2ccccc2)c2ncccc2c1=O)c1ccc(N2CCC(CO)CC2)nc1 [Example I-12, 4-Hydroxymethyl-3,4,5,6-tetrahydro-2H-[1,2′]bipyridinyl-5′-carboxylic acid (2-oxazol-2-yl-4-oxo-1-phenyl-1,4-dihydro-[1,8]naphthyridin-3-ylmethyl)-amide]
71 nM	19000 nM	CN1CCCN(c2ccc(C(=O)NCc3cn(-c4ccccc4)c4cc(Cl)ccc4c3=O)cn2)CC1 [Example I-82, N-(7-Chloro-4-oxo-1-phenyl-1,4-dihydro-quinolin-3-ylmethyl)-6-(4-methyl-[1,4]diazepan-1-yl)-nicotinamide]
65 nM	100000 nM	COC(=O)c1c(CNC(=O)c2cccnc2)c(=O)c2ccc(OC)cc2n1-c1ccccc1 [Example I-165, 7-Methoxy-4-oxo-1-phenyl-3-{[(pyridine-3-carbonyl)-amino]-methyl}-1,4-dihydro-quinoline-2-carboxylic acidmethyl ester]
35 nM	37000 nM	CN(C)C(=O)c1c(CNC(=O)c2ccc(N3CCOCC3)nc2)c(=O)c2ccc(Cl)cc2n1-c1ccccc1 [Example I-13, 7-Chloro-3-{[(6-morpholin-4-yl-pyridine-3-carbonyl)-amino]-methyl}-4-oxo-1-phenyl-1,4-dihydro-quinoline-2-carboxylic acid dimethylamide]
16 nM	19000 nM	O=C(NCc1cn(-c2ccccc2)c2cc(Cl)ccc2c1=O)c1cnc(N2CCCCC2)s1 [Example I-91, 2-Piperidin-1-yl-thiazole-5-carboxylic acid (7-chloro-4-oxo-1-phenyl-1,4-dihydro-quinolin-3-ylmethyl)-amide]
